Assay results reported in the NIST ThermoML archive (doi:10.1016/j.jct.2015.12.031).
Numbers after ± are expanded uncertainties.

Columns and labels:
[1] = refractive index (Na D-line) (dimensionless); settings: Liquid, Standard Abbe refractometry
[2] = Liquid; for speed of sound: Sing-around technique in a fixed-path interferometer; for mass density: Vibrating tube method
[3] = mn = molality of the nth substance listed, in mol/kg; settings: 86.5 kPa, Liquid, m2 = 0; for speed of sound: Frequency=3 MHz, Sing-around technique in a fixed-path interferometer; for mass density: Vibrating tube method
[4] = refractive index (Na D-line) (dimensionless); mn = molality of the nth substance listed, in mol/kg; settings: 86.5 kPa, Liquid, Standard Abbe refractometry, m2 = 0
[5] = 288.15 K, 86.5 kPa, Frequency=3 MHz
[6] = 293.15 K, 86.5 kPa, Frequency=3 MHz
[7] = 298.15 K, 86.5 kPa, Frequency=3 MHz
[8] = 303.15 K, 86.5 kPa, Frequency=3 MHz

SMILES: CCCCCCCCn1cc[n+](C)c1.[Br-] [1-methyl-3-octylimidazolium bromide]
- refractive index ([1]; 288.15 K, 86.5 kPa): 1.525 ± 0.0012
- refractive index ([1]; 293.15 K, 86.5 kPa): 1.5236 ± 0.0012
- refractive index ([1]; 298.15 K, 86.5 kPa): 1.5221 ± 0.0012
- refractive index ([1]; 303.15 K, 86.5 kPa): 1.5206 ± 0.0012
- speed of sound [2, 5]: 1605.2 ± 3.2 m/s
- mass density ([2]; 288.15 K, 86.5 kPa): 1179.37 ± 7.4 kg/m3
- speed of sound [2, 6]: 1581.9 ± 3.2 m/s
- mass density ([2]; 293.15 K, 86.5 kPa): 1176.17 ± 7.4 kg/m3
- speed of sound [2, 7]: 1561.9 ± 3.2 m/s
- mass density ([2]; 298.15 K, 86.5 kPa): 1172.98 ± 7.4 kg/m3
- speed of sound [2, 8]: 1542.8 ± 3.2 m/s
- mass density ([2]; 303.15 K, 86.5 kPa): 1169.86 ± 7.4 kg/m3

SMILES: CCCCCCn1cc[n+](C)c1.[Br-] [3-hexyl-1-methyl-1H-imidazolium bromide]
- refractive index ([1]; 288.15 K, 86.5 kPa): 1.5282 ± 0.0012
- refractive index ([1]; 293.15 K, 86.5 kPa): 1.5268 ± 0.0012
- refractive index ([1]; 298.15 K, 86.5 kPa): 1.5254 ± 0.0012
- refractive index ([1]; 303.15 K, 86.5 kPa): 1.5237 ± 0.0012
- speed of sound [2, 5]: 1639.4 ± 3.2 m/s
- mass density ([2]; 288.15 K, 86.5 kPa): 1231.02 ± 7.5 kg/m3
- speed of sound [2, 6]: 1610.4 ± 3.2 m/s
- mass density ([2]; 293.15 K, 86.5 kPa): 1227.43 ± 7.5 kg/m3
- speed of sound [2, 7]: 1587.1 ± 3.2 m/s
- mass density ([2]; 298.15 K, 86.5 kPa): 1223.74 ± 7.5 kg/m3
- speed of sound [2, 8]: 1568.7 ± 3.2 m/s
- mass density ([2]; 303.15 K, 86.5 kPa): 1220.35 ± 7.5 kg/m3

SMILES: CCCCCCCC [octane]
- refractive index ([1]; 288.15 K, 86.5 kPa): 1.3998 ± 0.0015
- refractive index ([1]; 293.15 K, 86.5 kPa): 1.3973 ± 0.0015
- refractive index ([1]; 298.15 K, 86.5 kPa): 1.3949 ± 0.0015
- refractive index ([1]; 303.15 K, 86.5 kPa): 1.3924 ± 0.0015
- speed of sound [2, 5]: 1214.5 ± 5.1 m/s
- mass density ([2]; 288.15 K, 86.5 kPa): 706.994 ± 7.5 kg/m3
- speed of sound [2, 6]: 1193.3 ± 5.1 m/s
- mass density ([2]; 293.15 K, 86.5 kPa): 702.995 ± 7.5 kg/m3
- speed of sound [2, 7]: 1172.4 ± 5.1 m/s
- mass density ([2]; 298.15 K, 86.5 kPa): 698.923 ± 7.4 kg/m3
- speed of sound [2, 8]: 1151.5 ± 5.1 m/s
- mass density ([2]; 303.15 K, 86.5 kPa): 694.878 ± 7.4 kg/m3

SMILES: CCCCCCCC [octane] + c1ccsc1
- speed of sound ([3]; 288.15 K): 1214.5 ± 5.1 m/s
- mass density ([3]; 288.15 K): 706.994 ± 7.5 kg/m3
- speed of sound ([3]; 293.15 K): 1193.3 ± 5.1 m/s
- mass density ([3]; 293.15 K): 702.995 ± 7.5 kg/m3
- speed of sound ([3]; 298.15 K): 1172.4 ± 5.1 m/s
- mass density ([3]; 298.15 K): 698.923 ± 7.4 kg/m3
- speed of sound ([3]; 303.15 K): 1151.5 ± 5.1 m/s
- mass density ([3]; 303.15 K): 694.878 ± 7.4 kg/m3
- refractive index ([4]; 288.15 K): 1.3998 ± 0.0015
- refractive index ([4]; 293.15 K): 1.3973 ± 0.0015
- refractive index ([4]; 298.15 K): 1.3949 ± 0.0015
- refractive index ([4]; 303.15 K): 1.3924 ± 0.0015

SMILES: c1ccsc1 [thiophene]
- refractive index ([1]; 298.15 K, 101.33 kPa): 1.5252 ± 0.0011
- speed of sound ([2]; 298.15 K, 101.33 kPa): 1279 ± 1.3 m/s
- mass density ([2]; 298.15 K, 101.33 kPa): 1058.56 ± 7 kg/m3
- speed of sound ([2]; 303.15 K, 101.33 kPa): 1258.7 ± 1.3 m/s
